IC50 data for three molecules are collected here from ChEMBL document CHEMBL1134224, “Synthetic analogues of SB-219383. Novel C-glycosyl peptides as inhibitors of tyrosyl tRNA synthetase” (Bioorg Med Chem Lett, 2001).

Structures are written as SMILES.

Assay [1] has as its target Tyrosine--tRNA ligase (Staphylococcus aureus). The experiment in a line: Inhibitory activity against Staphylococcus aureus tyrosyl tRNA synthetase (YRS) using aminoacylation assay.
Assay [2] concerns Tyrosine--tRNA ligase (Staphylococcus aureus). The experiment in a line: Inhibitory activity (3 uM) against Staphylococcus aureus tyrosyl tRNA synthetase (YRS) using aminoacylation assay; No inhibition.

As for `N[C@@H](Cc1ccc(O)cc1)C(=O)N[C@H](C(=O)O)[C@H]1[C@H](O)[C@@H](O)[C@@H](O)CN1O`, the IC50 (commonly the midpoint of a concentration-inhibition curve) in assay [1] was found to be 1.2 nM.
In the case of `N[C@@H](Cc1ccc(O)cc1)C(=O)N[C@@H](C(=O)O)[C@H]1OC[C@@H](O)[C@@H](O)[C@@H]1O`, in assay [2], the IC50 entry is recorded as “Not Active”.
On the same count and under the same terms, then `N[C@@H](Cc1ccc(O)cc1)C(=O)N[C@H](C(=O)O)[C@H]1OC[C@@H](O)[C@@H](O)[C@@H]1O`, with “Not Active”.
